From patent publication US4968705A, “Benzopyrrolidinone compounds as bronchospastic agents” (Adir et Cie, priority 1988, dated 1990)
Where two headings read alike, the source gives them in different places.

Assays:
[1] = system: histamine-induced bronchoconstriction; experiment: Armitage test: histamine-induced bronchoconstriction test in guinea pigs; type: in vivo; settings: guinea pig p.o.
From the text: (§1) The compounds of the invention and the prior art product fenspiride of the prior art used as reference substance were subjected to various tests described in ARZNEIMITTEL-FORSCHUNG/DRUG RESEARCH 37 (II), 12, 1354-1355 (1987), especially
the histamine-induced bronchoconstriction test in guinea pigs, […]

[2] = target: purified phosphodiesterase; experiment: In vitro inhibition of purified phosphodiesterase; type: biochemical
From the text: as §1
to assays in vitro on the inhibition of purified phosphodiesterase.

Toxicity LD50 in mouse = type: in vivo; settings: in vivo
From the text: as §1

[3] = system: experimental asthma induced in guinea pigs by antigen aerosols; experiment: Passive shock in guinea pigs (experimental asthma induced by antigen aerosols); type: in vivo; settings: Cavia porcellus, read-out: Passive shock guinea pig ED50
From the text: to the determination of the passive shock resulting from the study of experimental asthma induced in guinea pigs by antigen aerosols and […]

mice's ear edema = experiment: Mice's ear edema (technique of Young et al.); type: in vivo; settings: for decrease of the mice's ear edema: per os, 36 micromole/kg
Method: The compounds of the present invention were also tested on the mice's ear edema according to the technique of John M. YOUNG et al., Journal of […], 82, 363-371 (1984). Administrated, per os, at a dose of 36 micromole/kg, the derivatives of the present invention provoke a decrease of the mice's ear edema of from 15 to 50% according to the compounds.

mouse = experiment: Toxicity LD50 in mouse; type: in vivo; settings: PO
From the text: as §1

[4] = Cavia porcellus, po, dose 1 mg/kg, read-out: Armitage test % protection
[5] = Cavia porcellus, po, read-out: Armitage test % protection
[6] = +calmoduline, read-out: Phosphodiesterase inhibition IC50 +calmoduline (converted)
[7] = basal, read-out: Phosphodiesterase inhibition IC50 basal (converted)

Row | SMILES | LD50 (Toxicity LD50 in mouse; PO) | inhibition in vivo at 5 mg/kg [1, 5] | ED50 ([3]; guinea pig, PO) | IC50 [2, 6] | IC50 [2, 7] | further results
1 | O=C1Cc2cccc(F)c2N1CCN1CCC(OC(c2ccccc2)c2ccccc2)CC1 [Example 6, 1-(4-benzhydryloxypiperidinoethyl)-7-fluoro-oxindole] | – | – | – | – | – | inhibition in vivo at 1 mg/kg [1, 4]: 36.6%; Phosphodiesterase inhibition IC50 basal ([2]; basal): inactif
2 | O=C1Cc2ccccc2N1CCN1CCC(OC(c2ccccc2)c2ccccc2)CC1 [Example 1, 1-(4-benzhydryloxypiperidinoethyl)oxindole] | – | – | – | – | – | LD50 (Toxicity LD50 in mouse; IP): ~200 mg/kg; inhibition in vivo at 1 mg/kg [1, 4]: 66%; ED50 ([3]; ip): 2.5 mg/kg; ED50 ([3]; po): 5 mg/kg; Phosphodiesterase inhibition IC50 basal ([2]; basal): inactif
3 | O=C1c2cc(F)ccc2CN1CCN1CCC(OC(c2ccccc2)c2ccccc2)CC1 [Example 20, 2-(4-benzhydryloxypiperidinoethyl)-6-fluoro-isoxindole] | > 800 mg/kg | 43% | 40 mg/kg | 20 µM | > 100 µM | –
4 | O=C1Cc2cc(F)ccc2N1CCCN1CCC(OC(c2ccccc2)c2ccccc2)CC1 [Example 17, 1-(4-benzhydryloxypiperidinopropyl)-5-fluoro-oxindole] | > 800 mg/kg | 75% | 40 mg/kg | 10 µM | > 100 µM | –
5 | COc1cc2c(cc1OC)C(=O)N(CCCN1CCC(OC(c3ccccc3)c3ccccc3)CC1)C2 [Example 12, 2-(4-benzhydryloxypiperidinopropyl)-5,6-dimethoxyisoxindole] | 800 mg/kg | 79% | 20 mg/kg | 20 µM | 70 µM | –
6 | O=C1Cc2ccccc2N1CCCN1CCC(OC(c2ccccc2)c2ccccc2)CC1 [Example 5, 1-(4-benzhydryloxypiperidinopropyl)-oxindole] | – | – | – | 100 µM | > 100 µM | inhibition in vivo at 1 mg/kg [1, 4]: 72.1%
7 | O=C1c2ccccc2CN1CCCN1CCC(OC(c2ccccc2)c2ccccc2)CC1 [Example 16, 2-(4-benzhydryloxypiperidinopropyl)-isoxindole] | > 800 mg/kg | 82% | 5 mg/kg | 30 µM | > 100 µM | –
8 | O=C1Cc2ccccc2N1CCN1CCC(SC(c2ccccc2)c2ccccc2)CC1 [Example 9, 1-(4-benzhydrylthiopiperidinoethyl)-oxindole] | – | 60% | – | – | – | –
9 | O=C1Cc2ccccc2N1CCN1CCC(OC(c2ccc(F)cc2)c2ccc(F)cc2)CC1 [Example 3, 1-(4-bis-para-fluorobenzhydryloxypiperidinoethyl)oxindole] | < 800 mg/kg | – | – | – | – | inhibition in vivo at 1 mg/kg [1, 4]: 47.6%; Phosphodiesterase inhibition IC50 basal ([2]; basal): inactif
10 | CC(C)C1C(=O)N(CCN2CCC(OC(c3ccccc3)c3ccccc3)CC2)c2ccccc21 (stereo not drawn) [Example 15, 1-(4-benzhydryloxypiperidinoethyl)-3-isopropyloxindole] | > 800 mg/kg | 50% | 5 mg/kg | 30 µM | 100 µM | –
11 | O=C1Cc2ccccc2N1CCCN1CCC(C(c2ccc(F)cc2)c2ccc(F)cc2)CC1 [Example 4, 1-(4-bis-para-fluorobenzhydrylpiperidinopropyl)-oxindole] | – | – | – | – | – | LD50 (Toxicity LD50 in mouse; IP): ~200 mg/kg; inhibition in vivo at 20 mg/kg ([1]; Cavia porcellus, po, dose 20 mg/kg, read-out: Armitage test % protection): 59.4%; ED50 ([3]; guinea pig, IP): 40 mg/kg
12 | CC1(C)C(=O)N(CCN2CCC(OC(c3ccccc3)c3ccccc3)CC2)c2ccccc21 [Example 14, 1-(4-benzhydryloxypiperidinoethyl)-3,3-dimethyloxindole] | > 800 mg/kg | 70% | > 40 mg/kg | 20 µM | 30 µM | –
13 | O=C1NCC2(CCN(CCc3ccccc3)CC2)O1 [Fenspiride, reference compound] | > 800 mg/kg | – | 10 mg/kg | > 100 µM | > 100 µM | inhibition in vivo at 2.5 mg/kg ([1]; Cavia porcellus, po, dose 2,5 mg/kg, read-out: Armitage test % protection): 69%; ED50 ([3]; guinea pig, IP): 5 mg/kg; activity on mice's ear edema (in words) (mice's ear edema; same conditions and same dose (per os, 36 micromole/kg)): no activity
14 | O=C1Cc2cc(F)ccc2N1CCN1CCC(OC(c2ccccc2)c2ccccc2)CC1 [Example 8, 1-(4-benzhydryloxypiperidinoethyl)-5-fluoro-oxindole] | – | – | – | – | > 10 µM | inhibition in vivo at 1 mg/kg [1, 4]: 72%; ED50 ([3]; po): 2.5 to 5 mg/kg
15 | O=C1c2ccc(F)cc2CN1CCCN1CCC(OC(c2ccccc2)c2ccccc2)CC1 [Example 19, 2-(4-benzhydryloxypiperidinopropyl)-5-fluoro-isoxindole] | > 800 mg/kg | 68% | 10 mg/kg | 20 µM | > 100 µM | –
16 | O=C1Cc2ccccc2N1CCN1CCC(C(c2ccc(F)cc2)c2ccc(F)cc2)CC1 [Example 10, 1-(4-bis-para-fluorobenzhydrylpiperidinoethyl)oxindole] | < 800 mg/kg | 78% | – | 100 µM | > 100 µM | –
17 | O=C1c2ccccc2CN1CCN1CCC(OC(c2ccccc2)c2ccccc2)CC1 [Example 2, 2-(4-benzhydryloxypiperidinoethyl)isoxindole] | > 800 mg/kg | – | 2.5 to 5 mg/kg | – | > 100 µM | inhibition in vivo at 1 mg/kg [1, 4]: 36%
18 | O=C1Cc2ccccc2N1CCN1CCC(OC(c2ccc(F)cc2)c2ccc(F)cc2)CC1 [Example 7, 1-(4-bis-para-fluorobenzhydryloxypiperidinoethyl)oxindole] | – | – | – | – | – | Toxicity LD50 (mouse): < 800 mg/kg; Armitage test % protection ([1]; dose 1 mg/kg): +50%; ED50 ([3]; po): 2.5 to 5 mg/kg; Phosphodiesterase inhibition IC50 basal ([2]; basal): inactif
19 | O=c1[nH]c2ccccc2n1CCCN1CCN(C(c2ccccc2)c2ccccc2)CC1 [oxatomide] | – | – | – | – | – | decrease of the mice's ear edema (mice's ear edema): lower than 15%
20 | O=c1[nH]c2ccccc2n1CCN1CCC(OC(c2ccccc2)c2ccccc2)CC1 [1[(2-oxo-3-benzimidazolinyl-ethyl]-4-benzhydryloxy-piperidine] | – | – | – | – | – | decrease of the mice's ear edema (mice's ear edema): lower than 15%
21 | O=C1c2ccc(F)cc2CN1CCN1CCC(OC(c2ccccc2)c2ccccc2)CC1 [Example 18, 2-(4-benzhydryloxypiperidinoethyl)-5-fluoro-isoxindole] | > 800 mg/kg | 68% | 40 mg/kg | 20 µM | 100 µM | –
